Data on two compounds can be found in patent publication US5087562A, “Humoral hypercalcemic factor antagonists with modification at position 13 . . ” (Merck & Co., Inc., priority 1990, dated 1992).

Assay [1] deals with T1, Bovine renal cortical plasma membranes (HCF cell surface receptor) (Bos taurus, UniProt Q1LZF7).
T1 construct: from tissue; host or cells: bovine renal cortex plasma membranes
T1 sequence (Q1LZF7 29-589): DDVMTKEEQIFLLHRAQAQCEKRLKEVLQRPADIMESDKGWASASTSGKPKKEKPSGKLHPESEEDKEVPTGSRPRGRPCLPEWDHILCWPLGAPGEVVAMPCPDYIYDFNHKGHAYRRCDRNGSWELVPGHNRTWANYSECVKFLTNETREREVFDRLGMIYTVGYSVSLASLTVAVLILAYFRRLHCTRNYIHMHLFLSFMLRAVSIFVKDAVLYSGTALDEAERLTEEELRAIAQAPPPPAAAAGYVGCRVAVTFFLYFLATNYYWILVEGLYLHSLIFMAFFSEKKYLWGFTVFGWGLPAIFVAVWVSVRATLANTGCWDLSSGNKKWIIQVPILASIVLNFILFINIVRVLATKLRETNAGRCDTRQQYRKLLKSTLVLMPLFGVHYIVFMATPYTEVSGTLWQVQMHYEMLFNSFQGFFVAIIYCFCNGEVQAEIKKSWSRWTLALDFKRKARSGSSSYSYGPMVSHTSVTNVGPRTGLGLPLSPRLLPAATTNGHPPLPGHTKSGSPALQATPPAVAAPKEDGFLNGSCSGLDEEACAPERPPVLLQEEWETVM
Kind of assay: HCF binding assay (radioligand receptor assay). Conditions: radioligand [Nle^8,18,(^125 I)-Tyr^34]bPTH(1-34)NH2, 30 min at 21° C. Here is the method: HCF analogues were analysed in a new receptor assay which modified the assay reported in Rosenblatt et al., Endocrin 107: 545-550 (1980). The binding assay used [Nle^8,18, (^125 I)-Tyr^34 ]bPTH (1-34)NH2 which was purified by HPLC (Novapak C18, 32-35% CH3 CN in 0.1% TFA) and was stored as aliquots in 25 mM TrisHCl/1%BSAat -70° C. Bovine renal cortical plasma membranes were incubated with radioligand (25,000 cpm) in a Tris-containing buffer (250 μl) for 30 min. at 21° C. Once equilibrium was reached, bound and free radioligand were separated by centrifugation.
High specific binding (85%) to bovine renal cortical membranes was obtained consistently.
The assay reported on page 546 in Rosenblatt, et al. is as follows:
Radioligand binding assay: A PTH-binding assay based on the sulfur-free ^125 I-labeled hormone analog, [Nle-8,Nle-18,Tyr-34]-bPTH-(1-34)amide,was employed (4). The assay is specific and saturable with regard to PTH binding, and binding avidity in this system correlates closely with biological acitibity for multiple PTH agonist fragments and analogs. […] Inhibition of specific binding of radioligand was assessed for each fragment over several log orders of magnitude. […] In each assay, inhibition of radioligand binding was determined in triplicate at each concentration of peptide used.

For assay [2], the system named is bovine renal membrane adenylate cyclase. Conditions: bovine renal cortical membranes; quoted from Horiuchi et al.; cited from earlier work.

On to `CC[C@H](C)[C@H](NC(=O)[C@H](CC(C)C)NC(=O)[C@H](Cc1c[nH]cn1)NC(=O)[C@H](Cc1c[nH]cn1)NC(=O)[C@H](CC(C)C)NC(=O)[C@H](Cc1ccccc1)NC(=O)[C@H](Cc1ccccc1)NC(=O)[C@H](CCCNC(=N)N)NC(=O)[C@H](CCCNC(=N)N)NC(=O)[C@H](CCCNC(=N)N)NC(=O)[C@H](CC(C)C)NC(=O)[C@H](CC(=O)O)NC(=O)[C@H](CCC(N)=O)NC(=O)[C@@H](NC(=O)[C@H](CO)NC(=O)[C@H](CCCCNC(=O)CCc1ccccc1)NC(=O)[C@@H](Cc1c[nH]c2ccccc12)NC(=O)[C@H](CC(C)C)NC(=O)[C@H](CC(=O)O)NC(=O)[C@H](Cc1c[nH]cn1)NC(=O)CCC(C)C)[C@@H](C)CC)C(=O)N[C@@H](C)C(=O)N[C@@H](CCC(=O)O)C(=O)N[C@H](C(=O)N[C@@H](Cc1c[nH]cn1)C(=O)N[C@H](C(=O)N[C@@H](C)C(N)=O)[C@@H](C)O)[C@@H](C)CC` [desamino [Leu^11, D-Trp^12, Lys^13 (N^ε --CO(CH2)2 -Phenyl)]hHCF(8-34)NH2], for which the Kb in assay [1] amounted to 20 ± 3 nM.

Regarding hHCF-(1-34)NH2, the “potency in adenylate cyclase assay (stimulation)” value in assay [2] is recorded as “potency comparable to PTH”.
